# Source: patent publication US11957671B2, “Benzodioxane modulators of leukotriene A4 hydrolase (LTA4H) for prevention and treatment of aging-associated diseases” (Alkahest, Inc., priority 2021, dated 2024)
# Target: human LTA4 hydrolase (Homo sapiens (Human), UniProt P09960)
# Assay: LTA4H Enzyme assay (cleavage of Arg-AMC)
# Type: biochemical
# Settings: LTA4H 1 nM, Arg-AMC 50 μM, room temperature 1 h
# Method: The compounds of the invention are assessed for the ability to interact with human LTA4 hydrolase in an enzymatic assay that measures the ability of the enzyme to cleave the peptide bond of arginyl-aminomethylcoumarin (Arg-AMC). LTA4H Enzyme (1 nM final), Arg-AMC substrate (50 μM final), and compound are combined in a reaction buffer (50 mM Tris-HCl (pH 7.5), 100 mM KCl, 0.5% bovine serum albumin) at room temperature for 1 h. The formation of product is assessed by measuring the fluorescence of aminomethylcoumarin product (excitation wavelength 380 nm/emission wavelength 460 nm).
# human LTA4 hydrolase, sequence (P09960 whole entry): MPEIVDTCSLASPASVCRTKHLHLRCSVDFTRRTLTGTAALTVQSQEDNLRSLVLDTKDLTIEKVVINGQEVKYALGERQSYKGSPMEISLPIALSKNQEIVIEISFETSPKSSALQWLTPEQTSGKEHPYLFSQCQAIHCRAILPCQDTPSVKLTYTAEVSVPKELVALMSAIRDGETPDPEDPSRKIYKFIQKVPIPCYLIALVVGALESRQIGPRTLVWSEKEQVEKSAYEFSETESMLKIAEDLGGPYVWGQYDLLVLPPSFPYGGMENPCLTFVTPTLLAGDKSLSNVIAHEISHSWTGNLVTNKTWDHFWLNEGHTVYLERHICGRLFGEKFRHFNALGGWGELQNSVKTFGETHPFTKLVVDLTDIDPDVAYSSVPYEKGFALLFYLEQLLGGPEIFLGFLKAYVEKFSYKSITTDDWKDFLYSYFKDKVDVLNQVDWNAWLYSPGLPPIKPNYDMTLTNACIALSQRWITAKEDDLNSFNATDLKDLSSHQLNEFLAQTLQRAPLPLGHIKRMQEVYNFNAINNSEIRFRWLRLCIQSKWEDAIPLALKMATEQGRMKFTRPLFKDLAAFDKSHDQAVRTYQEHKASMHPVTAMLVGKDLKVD
row,IC50 [nM],Compound
1,40.1,"c1ccc2c(c1)OC[C@@H](c1ccc(CN3CCOCC3)cc1)O2 [Example 199, 4-{4-[(2R)-2,3-dihydro-1,4-benzodioxin-2-yl]benzyl}morpholine]"
2,0.73,"O=S1(=O)CCN(Cc2ccc(C3COc4cccnc4O3)cc2)CC1 (centres unmarked) [Example 17, 3-{4-[(1,1-dioxidothiomorpholin-4-yl)methyl]phenyl}-2,3-dihydro[1,4]dioxino[2,3-b]pyridine]"
3,0.77,"c1cnc2c(c1)OCC(c1ccc(CN3CCCC3)cc1)O2 (centres unmarked) [Example 15, 3-[4-(pyrrolidin-1-ylmethyl)phenyl]-2,3-dihydro[1,4]dioxin[2,3-b]pyridine]"
4,1.14,"c1ccc2c(c1)OCC(c1ccc(CN3CCn4cnnc4C3)cc1)O2 (centres unmarked) [Example 16, 7-[4-(2,3-dihydro-1,4-benzodioxin-2-yl)benzyl]-5,6,7,8-tetrahydro[1,2,4,]triazolo[4,3-a]pyrazine]"
5,2.32,CC(=O)N1CCC(N(C)Cc2ccc([C@H]3COc4ccccc4O3)cc2)CC1 [Example 14]

# Test system: synthesis of LTB4 in human whole blood
# Assay: human whole blood (HWB) assay, LTB4 production inhibition
# Type: cell-based
# Settings: calcimycin 20 μM
# Method: The compounds of the invention are additionally tested in a human whole blood (HWB) assay to determine their ability to inhibit the synthesis of LTB4 in a cellular system. Compounds are combined with heparinized human whole blood and incubated for 15 minutes at 37° C. Calcimycin (20 μM final, prepared in phosphate-buffered saline, pH 7.4) is then added and the mixture is incubated for another 30 minutes at 37° C. The samples are centrifuged for 5 min at low speed (1500×g) and the plasma layer is removed. Plasma LTB4 concentrations are then measured using an antibody-based homogenous time-resolved fluorescence method (CisBio, Bedford, Mass.). In general, the preferred potency range (IC50) of compounds in the HWB assay is between 10 nM to 10 μM, the more preferred potency range is 10 nM to 1 μM, and the most preferred potency range is 10 nM to 100 nM.
row,Compound,IC50 [nM]
1,"CN(Cc1ccc([C@H]2COc3ccccc3O2)cc1)C1CCCCC1 [Example 67, N-{4-[(2S)-2,3-dihydro-1,4-benzodioxin-2-yl]benzyl}-N-methylcyclohexanamine]",346
2,"CC(C)(C(=O)O)C1CCN(Cc2ccc([C@H]3COc4ccccc4O3)cc2)CC1 [Example 229, 2-(1-{4-[(2S)-2,3-dihydro-1,4-benzodioxin-2-yl]benzyl}piperidin-4-yl)-2-methylpropanoic acid]",290
3,"c1cnc2c(c1)OCC(c1ccc(CN3CCOCC3)cc1)O2 (racemic) [Example 18, 3-[4-(morpholin-4-ylmethyl)phenyl]-2,3-dihydro[1,4]dioxino[2,3-b]pyridine]",176
4,"OC[C@H]1CCCC[C@H]1NCc1ccc([C@H]2COc3ccccc3O2)cc1 [Example 87, [(1S,2R)-2-({4-[(2S)-2,3-dihydro-1,4-benzodioxin-2-yl]benzyl)amino)cyclohexyl] methanol]",268
5,"CC(=O)N1CC[C@@H](NCc2ccc([C@H]3COc4ccccc4O3)cc2)C1 [Example 64, 1-[(3R)-3-({4-[(2S)-2,3-dihydro-1,4-benzodioxin-2-yl]benzyl}amino)pyrrolidin-1-yl]ethanone]",158
6,"c1ccc2c(c1)OC[C@H](c1ccc(CN3CCC[C@H]4CCCC[C@@H]43)cc1)O2 [Example 85, (4aR,8aS)-1-{4-[(2S)-2,3-dihydro-1,4-benzodioxin-2-yl]benzyl}decahydroquinoline]",305
7,"NC(=O)NC1CCN(Cc2ccc([C@H]3COc4cccnc4O3)cc2)CC1 [Example 187, 1-(1-{4-[(3S)-2,3-dihydro[1,4]dioxino[2,3-b]pyridin-3-yl]benzyl}piperidin-4-yl)urea]",177
8,"O=C(O)C1CCN(Cc2ccc([C@H]3COc4ccccc4O3)cc2)C1 (stereo partly drawn) [Example 61, 1-{4-[(2S)-2,3-dihydro-1,4-benzodioxin-2-yl]benzyl}pyrrolidine-3-carboxylic acid]",250
9,"O=C1CCCN1CC1CCCN(Cc2ccc(C3COc4ccccc4O3)cc2)C1 (racemic) [Example 10, 1-({1-[4-(2,3-dihydro-1,4-benzodioxin-2-yl)benzyl]piperidin-3-yl}methyl)pyrrolidin-2-one]",352

# Continued, values first:
row,IC50 [nM],Compound
1,94.5,CCCCN(Cc1ccc(C(=O)O)cc1)Cc1ccc([C@H]2COc3ccccc3O2)cc1 [Example 237]
2,94.8,"O=C(O)c1ccc(CC2CCN(Cc3ccc([C@H]4COc5cccnc5O4)cc3)CC2)cc1 [Example 234, 4-[(1-{4-[(3S)-2,3-dihydro[1,4]dioxino[2,3-b]pyridin-3-yl]benzyl}piperidin-4-yl)methyl]benzoic acid]"
3,75.5,"CCN(Cc1ccc([C@H]2COc3ccccc3O2)cc1)C1CCCC1 [Example 109, N-{4-[(2S)-2,3-dihydro-1,4-benzodioxin-2-yl]benzyl}-N-ethylcyclopentanamine]"
4,165,"OCC1CCCN(Cc2ccc([C@H]3COc4ccccc4O3)cc2)C1 (stereo partly drawn) [Example 69, (1-{4-[(2S)-2,3-dihydro-1,4-benzodioxin-2-yl]benzyl}piperidin-3-yl)methanol]"
5,149,"COCC(=O)NC1CCN(Cc2ccc([C@H]3COc4ccccc4O3)cc2)CC1 [Example 219, N-(1-{4-[(2S)-2,3-dihydro-1,4-benzodioxin-2-yl]benzyl}piperidin-4-yl)-2-methoxyacetamide]"
6,27.5,"COC1CCCN(Cc2ccc([C@H]3COc4cccnc4O3)cc2)C1 (stereo partly drawn) [Example 158, (3S)-3-{4-[(3-methoxypiperidin-1-yl)methyl]phenyl}-2,3-dihydro[1,4]dioxino[2,3-b]pyridine]"
7,26,"CS(=O)(=O)NC1CCN(Cc2ccc([C@H]3COc4cccnc4O3)cc2)CC1 [Example 190, N-(1-{4-[(3S)-2,3-dihydro[1,4]dioxino[2,3-b]pyridin-3-yl]benzyl}piperidin-4-yl)methanesulfonamide]"
8,155,CC(=O)N1CCC(N(C)Cc2ccc([C@H]3COc4ccccc4O3)cc2)CC1 [Example 14]
9,80.7,"CC1CCCCN1Cc1ccc([C@H]2COc3ccccc3O2)cc1 (stereo partly drawn) [Example 68, 1-{4-[(2S)-2,3-dihydro-1,4-benzodioxin-2-yl]benzyl}-2-methylpiperidine]"
